The text below walks through data of US6583306B1, “Methods of asymmetrically synthesizing enantiomers of Casodex, its derivatives and intermediates thereof” (priority 1999, dated 2003).

Read-outs that look alike come from different tables or passages of the source.

The assay concerns testosterone response. Put plainly: Biological data comparing pure enantiomers of Casodex (bicalutamide) with the racemic mixture: reduction of the testosterone response. It is filed as cell-based. The source says:
The data for dihydrotestosterone are EC50 values. The rest of the data are IC50 values, since the assay is measuring the amount of compound it takes to reduce the testosterone response 50%.

Setting [1] is: Experiment 1, amount of compound it takes to reduce the testosterone response 50%, read-out: IC50, Experiment 1.
[2] abbreviates: Experiment 2, amount of compound it takes to reduce the testosterone response 50%, read-out: IC50, Experiment 2.

For the compound `CC(O)(CS(=O)(=O)c1ccc(F)cc1)C(=O)Nc1ccc(C#N)c(C(F)(F)F)c1` (racemic) [Racemate, N-[4-cyano-3-(trifluoromethyl)phenyl]-3-[(4-fluorophenyl)sulfonyl]-2-hydroxy-2-methyl-propanamide,(+−)], the IC50 by setting is: (read-out: IC50, Experiment 1) 900 nM; (read-out: IC50, Experiment 2) 1000 nM.

Turning to `CC(O)(CS(=O)(=O)c1ccc(F)cc1)C(=O)Nc1ccc(C#N)c(C(F)(F)F)c1` [(R), N-(4cyano-3-trifluoromethyl-phenyl)-3-(4-fluoro-phenylsulfonyl)2-hydroxy-2-methyl-propionamide], the IC50 under setting [1] worked out at 374 nM and the IC50 under setting [2] was determined as 359 nM.

For `C[C@@](O)(CS(=O)(=O)c1ccc(F)cc1)C(=O)Nc1ccc(C#N)c(C(F)(F)F)c1` [(S)], the IC50 runs as follows: under setting [1], 7700 nM; under setting [2], 11000 nM.

`C[C@]12CCC(=O)C[C@@H]1CC[C@@H]1[C@@H]2CC[C@]2(C)[C@@H](O)CC[C@@H]12` [DHT (Standard), dihydrotestosterone]: the EC50 runs as follows: (read-out: EC50, Experiment 1) 0.18 nM; (read-out: EC50, Experiment 2) 0.18 nM.

Take `CC(C)(O)C(=O)Nc1ccc([N+](=O)[O-])c(C(F)(F)F)c1` [OH Flut. (Standard)]: the IC50 under setting [1] amounted to 19 nM and the IC50 under setting [2] is 41 nM.

What is called IC50 is the point on the concentration scale where inhibition reaches its midpoint. As usually defined, the EC50 is the concentration that produces a half-maximal response.
